Structures can show the parent of a compound that is named as a salt. Where two headings read alike, the source gives them in different places.

One experiment concerns the target rat TAAR1 (Rattus norvegicus (Rat), UniProt Q923Y9). The experiment is described as follows: Radioligand binding assay on rat TAAR1.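 Note: stably transfected HEK293 cell membranes with a tritiated radioligand, 1 h incubation at 4 °C, nonspecific binding taken as binding with 10 µM unlabeled ligand.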
For a further experiment, the target named is mouse TAAR1 (Mus musculus (Mouse), UniProt Q923Y8). Put plainly: Radioligand binding assay on mouse TAAR1.
Sequence of mouse TAAR1 (Q923Y8 whole entry): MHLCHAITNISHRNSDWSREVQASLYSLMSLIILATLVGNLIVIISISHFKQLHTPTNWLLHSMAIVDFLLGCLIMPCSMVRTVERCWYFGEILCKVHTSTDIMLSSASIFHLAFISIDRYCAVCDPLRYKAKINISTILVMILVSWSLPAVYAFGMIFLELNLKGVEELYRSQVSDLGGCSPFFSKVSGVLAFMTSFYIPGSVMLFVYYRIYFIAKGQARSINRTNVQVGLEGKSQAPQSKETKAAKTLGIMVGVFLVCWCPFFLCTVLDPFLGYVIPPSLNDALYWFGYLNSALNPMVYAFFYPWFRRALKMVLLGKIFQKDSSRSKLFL
The mark [1] stands for this setting: read-out: Ki (μM) rat, rat TAAR1, membranes of HEK-293 cells, radioligand displacement.
Setting [2] is: read-out: Ki (μM) mouse, mouse TAAR1, membranes of HEK-293 cells, radioligand displacement.

Sequence of rat TAAR1 (Q923Y9 whole entry): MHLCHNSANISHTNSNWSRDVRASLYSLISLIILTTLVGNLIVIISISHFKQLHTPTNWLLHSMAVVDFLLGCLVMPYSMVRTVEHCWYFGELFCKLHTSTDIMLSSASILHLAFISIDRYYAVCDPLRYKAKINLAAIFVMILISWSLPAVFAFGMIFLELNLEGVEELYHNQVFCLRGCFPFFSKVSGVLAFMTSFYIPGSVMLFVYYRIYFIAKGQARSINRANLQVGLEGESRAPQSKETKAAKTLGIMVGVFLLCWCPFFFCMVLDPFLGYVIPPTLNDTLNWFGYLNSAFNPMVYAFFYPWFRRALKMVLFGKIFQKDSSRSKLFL
Procedure for mouse TAAR1: (§1) For the generation of stably transfected cell lines HEK293 cells were transfected with the pIRESneo2 expression plasmids containing the TAAR coding sequences (described above) with Lipofectamine 2000 (Invitrogen) according to the instructions of the manufacturer, and 24 hrs post transfection the culture medium was supplemented with 1 mg/ml G418 (Sigma, Buchs, Switzerland). […] Radioligand Binding Assay on Rat TAAR1 Membrane Preparation and Radioligand Binding. […] Cells were released from culture flasks using trypsin/EDTA, harvested, washed twice with ice-cold PBS (without Ca^2+ and Mg^2+), pelleted at 1,000 rpm for 5 min at 4° C., frozen and stored at −80° C. Frozen pellets were suspended in 20 ml HEPES-NaOH (20 mM, pH 7.4) containing 10 mM EDTA and homogenized with a Polytron (PT 6000, Kinematica) at 14,000 rpm for 20 s. The homogenate was centrifuged at 48,000×g for 30 min at 4° C. Subsequently, the supernatant was removed and discarded, and the pellet resuspended in 20 ml HEPES-NaOH (20 mM, pH 7.4) containing 0.1 mM EDTA using the Polytron (20 s at 14,000 rpm). This procedure was repeated and the final pellet resuspended in HEPES-NaOH containing 0.1 mM EDTA and homogenized using the Polytron. Typically, aliquots of 2 ml membrane portions were stored at −80° C. With each new membrane batch the dissociation constant (Kd) was determined via a saturation curve. […] Nonspecific binding was defined as the amount of ^3[H]-(S)-4-[(ethyl-phenyl-amino)-methyl]-4,5-dihydro-oxazol-2-ylamine bound in the presence of 10 μM unlabeled ligand. All compounds were tested at a broad range of concentrations (10 pM to 10 μM) in duplicates. […] The 96 deep well plates were incubated for 1 hr at 4° C. Incubations were terminated by rapid filtration through Unifilter-96 plates (Packard Instrument Company) and glass filters GF/C (Perkin Elmer) presoaked for 1 hr in polyethylenimine (0.3%) and washed 3 times with 1 ml of cold binding buffer. After addition of 45 μl of Microscint 40 (PerkinElmer) the Unifilter-96 plate was sealed and after 1 hr the radioactivity counted using a TopCount Microplate Scintillation Counter (Packard Instrument Company). Radioligand Binding Assay on Mouse TAAR1 Membrane Preparation and Radioligand Binding. […] Cells were released from culture flasks using trypsin/EDTA, harvested, washed twice with ice-cold PBS (without Ca^2+ and Mg^2+), pelleted at 1,000 rpm for 5 min at 4° C., frozen and stored at −80° C. Frozen pellets were suspended in 20 ml HEPES-NaOH (20 mM, pH 7.4) containing 10 mM EDTA and homogenized with a Polytron (PT 6000, Kinematica) at 14,000 rpm for 20 s. The homogenate was centrifuged at 48,000×g for 30 min at 4° C. Subsequently, the supernatant was removed and discarded, and the pellet resuspended in 20 ml HEPES-NaOH (20 mM, pH 7.4) containing 0.1 mM EDTA using the Polytron (20 s at 14,000 rpm). This procedure was repeated and the final pellet resuspended in HEPES-NaOH containing 0.1 mM EDTA and homogenized using the Polytron. Typically, aliquots of 2 ml membrane portions were stored at −80° C. With each new membrane batch the dissociation constant (Kd) was determined via a saturation curve.
Procedure for rat TAAR1: as §1

`O=C(Nc1ccc([C@H]2CNCCO2)cc1)c1cnn(-c2ncc(C(F)(F)F)cc2F)c1` [Example 19, (S)-1-(3-fluoro-5-(trifluoromethyl)pyridin-2-yl)-N-(4-(morpholin-2-yl)phenyl)-1H-pyrazole-4-carboxamide hydrochloride]: the Ki – broadly, the dissociation constant of the complex between target and ligand, obtained from inhibition or displacement – on rat TAAR1 (setting [1]) came out at 0.016 µM; on mouse TAAR1 (setting [2]), 0.0135 µM.
For the molecule `Cc1c(C(=O)Nc2ccc([C@H]3CNCCO3)cc2)cnn1-c1ccc(OC(F)F)cc1` [Example 31, (S)-1-(4-(difluoromethoxy)phenyl)-5-methyl-N-(4-(morpholin-2-yl)phenyl)-1H-pyrazole-4-carboxamide hydrochloride], the Ki on rat TAAR1 (setting [1]) came to 0.045 µM; on mouse TAAR1 (setting [2]), 0.0013 µM.
`O=C(Nc1ccc([C@H]2CNCCO2)cc1)c1cnn(-c2cc(Cl)ccn2)c1` [Example 15, (S)-1-(4-chloropyridin-2-yl)-N-(4-(morpholin-2-yl)phenyl)-1H-pyrazole-4-carboxamide hydrochloride]: the values for the inhibitory constant (Ki) on rat TAAR1 (setting [1]) and on mouse TAAR1 (setting [2]) were 0.0036 µM and 0.0016 µM, respectively.
As to `O=C(Nc1ccc([C@H]2CNCCO2)cc1)c1cnn(-c2cccc(F)c2)c1` [Example 5, (S)-1-(3-fluorophenyl)-N-(4-(morpholin-2-yl)phenyl)-1H-pyrazole-4-carboxamide hydrochloride], the inhibitory constant (Ki) on rat TAAR1 (setting [1]) came to 0.0039 µM; at mouse TAAR1 (setting [2]) it was 0.0015 µM.
Regarding `N#Cc1ccc(-n2cc(C(=O)Nc3ccc([C@H]4CNCCO4)cc3)cn2)cc1` [Example 6, (S)-1-(4-cyanophenyl)-N-(4-(morpholin-2-yl)phenyl)-1H-pyrazole-4-carboxamide hydrochloride], the results for the inhibition constant (Ki) at rat TAAR1 (setting [1]) and on mouse TAAR1 (setting [2]) were 0.007 µM and 0.0028 µM, respectively.
Take `O=C(Nc1ccc([C@H]2CNCCO2)cc1)c1cnn(-c2ccnc(Cl)n2)c1` [Example 36, (S)-1-(2-chloropyrimidin-4-yl)-N-(4-(morpholin-2-yl)phenyl)-1H-pyrazole-4-carboxamide hydrochloride]: the inhibition constant Ki was 0.0054 µM on rat TAAR1 (setting [1]) and 0.0086 µM at mouse TAAR1 (setting [2]).
With `O=C(Nc1ccc([C@H]2CNCCO2)cc1)c1cnn(-c2cc(C3CC3)ncn2)c1` [Example 56, (S)-1-(6-cyclopropylpyrimidin-4-yl)-N-(4-(morpholin-2-yl)phenyl)-1H-pyrazole-4-carboxamide hydrochloride], the inhibition constant (Ki) on rat TAAR1 (setting [1]) came to 0.0052 µM; on mouse TAAR1 (setting [2]), 0.0051 µM.
Consider `N#Cc1ccc(-n2cc(C(=O)Nc3ccc([C@@H]4CNCCO4)cc3)cn2)c(F)c1` [Example 49, (R)-1-(4-cyano-2-fluorophenyl)-N-(4-(morpholin-2-yl)phenyl)-1H-pyrazole-4-carboxamide hydrochloride], for which the inhibition constant Ki was found to be 0.0033 µM on rat TAAR1 (setting [1]) and 0.0049 µM at mouse TAAR1 (setting [2]).
As to `COc1cccc(-n2cc(C(=O)Nc3ccc([C@H]4CNCCO4)cc3)cn2)n1` [Example 18, (S)-1-(6-methoxypyridin-2-yl)-N-(4-(morpholin-2-yl)phenyl)-1H-pyrazole-4-carboxamide hydrochloride], the Ki on rat TAAR1 (setting [1]) came to 0.0029 µM; at mouse TAAR1 (setting [2]), 0.001 µM.
With `O=C(Nc1ccc([C@H]2CNCCO2)cc1)c1cnn(-c2ccnc(Cl)c2)c1` [Example 20, (S)-1-(2-chloropyridin-4-yl)-N-(4-(morpholin-2-yl)phenyl)-1H-pyrazole-4-carboxamide hydrochloride], the inhibitory constant (Ki) was determined as 0.0059 µM at rat TAAR1 (setting [1]) and 0.0041 µM at mouse TAAR1 (setting [2]).
In the case of `O=C(Nc1ccc([C@H]2CNCCO2)cc1)c1cnn(-c2cccc(OC(F)F)c2)c1` [Example 22, (S)-1-(3-(difluoromethoxy)phenyl)-N-(4-(morpholin-2-yl)phenyl)-1H-pyrazole-4-carboxamide hydrochloride], the inhibitory constant (Ki) on rat TAAR1 (setting [1]) worked out at 0.0014 µM; at mouse TAAR1 (setting [2]), 0.001 µM.
Regarding `O=C(Nc1ccc([C@H]2CNCCO2)cc1)c1cnn(-c2cc(C(F)(F)F)ncn2)c1` [Example 44, (S)—N-(4-(morpholin-2-yl)phenyl)-1-(6-(trifluoromethyl)pyrimidin-4-yl)-1H-pyrazole-4-carboxamide hydrochloride], the inhibition constant (Ki) on rat TAAR1 (setting [1]) worked out at 0.0041 µM; on mouse TAAR1 (setting [2]), 0.0099 µM.
As for `O=C(Nc1ccc([C@H]2CNCCO2)cc1)c1cnn(-c2ccc(I)cn2)c1` [Example 10, (S)-1-(5-iodopyridin-2-yl)-N-(4-(morpholin-2-yl)phenyl)-1H-pyrazole-4-carboxamide hydrochloride], the results for the Ki at rat TAAR1 (setting [1]) and at mouse TAAR1 (setting [2]) were 0.0041 µM and 0.0012 µM, respectively.
On the same counts, the results for `O=C(Nc1ccc([C@H]2CNCCO2)cc1)c1cnn(-c2ccc(C(F)(F)F)nc2)c1` [Example 51, (S)—N-(4-(morpholin-2-yl)phenyl)-1-(6-(trifluoromethyl)pyridin-3-yl)-1H-pyrazole-4-carboxamide hydrochloride] are 0.0048 µM and 0.0064 µM.
As for `O=C(Nc1ccc([C@H]2CNCCO2)cc1)c1cnn(-c2ccnc(C(F)(F)F)c2)c1` [Example 50, (S)—N-(4-(morpholin-2-yl)phenyl)-1-(2-(trifluoromethyl)pyridin-4-yl)-1H-pyrazole-4-carboxamide hydrochloride], the results for the inhibitory constant (Ki) at rat TAAR1 (setting [1]) and at mouse TAAR1 (setting [2]) were 0.0038 µM and 0.0077 µM, respectively.
On to `N#Cc1cc(Br)ccc1-n1cc(C(=O)Nc2ccc([C@H]3CNCCO3)cc2)cn1` [Example 17, (S)-1-(4-bromo-2-cyanophenyl)-N-(4-(morpholin-2-yl)phenyl)-1H-pyrazole-4-carboxamide hydrochloride], for which the inhibition constant (Ki) was determined as 0.0015 µM at rat TAAR1 (setting [1]) and 0.0021 µM at mouse TAAR1 (setting [2]).
Regarding `Cc1cnc(-n2cc(C(=O)Nc3ccc([C@H]4CNCCO4)cc3)cn2)cn1` [Example 40, (S)-1-(5-methylpyrazin-2-yl)-N-(4-(morpholin-2-yl)phenyl)-1H-pyrazole-4-carboxamide hydrochloride], the inhibition constant Ki is 0.126 µM at rat TAAR1 (setting [1]) and 0.0119 µM at mouse TAAR1 (setting [2]).
`O=C(Nc1ccc([C@H]2CNCCO2)cc1)c1cnn(-c2ncc(Cl)cn2)c1` [Example 30, (S)-1-(5-chloropyrimidin-2-yl)-N-(4-(morpholin-2-yl)phenyl)-1H-pyrazole-4-carboxamide hydrochloride]: the Ki on rat TAAR1 (setting [1]) worked out at 0.135 µM; on mouse TAAR1 (setting [2]), 0.0166 µM.
Regarding `O=C(Nc1ccc([C@H]2CNCCO2)cc1)c1cnn(-c2ccc(OC(F)(F)F)cc2)c1` [Example 26, (S)—N-(4-(morpholin-2-yl)phenyl)-1-(4-(trifluoromethoxy)phenyl)-1H-pyrazole-4-carboxamide hydrochloride], the Ki was 0.0005 µM on rat TAAR1 (setting [1]) and 0.0007 µM at mouse TAAR1 (setting [2]).
Turning to `O=C(Nc1ccc(C2CCNC2)cc1)c1cnn(-c2ccc(OC(F)F)cc2)c1` (racemic) [Example 54, (RS)-1-(4-difluoromethoxy-phenyl)-1H-pyrazole-4-carboxylic acid (4-pyrrolidin-3-yl-phenyl)-amide], the inhibition constant (Ki) on rat TAAR1 amounted to 0.0011 µM; on mouse TAAR1, 0.0016 µM.
For `O=C(Nc1ccc([C@H]2CNCCO2)cc1)c1cnn(-c2ccnc(C(F)(F)F)n2)c1` [Example 34, (S)—N-(4-(morpholin-2-yl)phenyl)-1-(2-(trifluoromethyl)pyrimidin-4-yl)-1H-pyrazole-4-carboxamide hydrochloride], the results for the inhibition constant (Ki) on rat TAAR1 (setting [1]) and on mouse TAAR1 (setting [2]) were 0.0035 µM and 0.0054 µM, respectively.
For `N#Cc1cncc(-n2cc(C(=O)Nc3ccc([C@H]4CNCCO4)cc3)cn2)n1` [Example 47, (S)-1-(6-cyanopyrazin-2-yl)-N-(4-(morpholin-2-yl)phenyl)-1H-pyrazole-4-carboxamide hydrochloride] the same measures were 0.0345 µM and 0.0195 µM.

(Values after patent US9487501B2, “Pyrazole carboxamide compounds and uses thereof” (Hoffmann-La Roche Inc., priority 2012, dated 2016).)
